Results: US20070166317A1, “Microparticles” (priority 2003, published 2007)

Legend:
[1] = tested on: CHO cells; experiment: Cellular association of peptide modified latex microparticles, confocal microscopy, CHO cells; type: cell-based, Chinese Hamster; conditions: 3 hours at 37° C., 10 ng peptide/μg Sigma carboxylate modified latex, 0.15 μg latex/μL of media, FIG. 4
Experimental: (§1) Latex (50 to 100 μL) was added to PBS (890 to 945 μL) followed by peptide solution (5 to 10 μL) and the resultant 1 mL solution mixed. The material was left to stand at room temperature for 2 hours and then dialysed over night against 2 L of PBS in the dark at 4° C. The particles were then recovered stored at 4° C. in the dark and used without further treatment.
CHO stock culture was grown in Ham's F12 media supplemented with 10% foetal bovine serum, glutamine (2 mM), fungizone (50 mg/ml) and pen-strep (0.1 mg/ml). Cells were seeded at 1 to 2×10^4 cell/cm^2 using 0.25% trypsin-EDTA and maintained in a humidified 5% CO2 atmosphere, at 37° C. and sub-cultured twice a week.
(§2) Prior (48 hr) to an experiment CHO or HFFF2 cells were plated at 2×10^4/cm^2 in an 8 well chamber slide, 0.7 cm^2 and 0.2 mL/chamber. One day before the experiment, media was replaced with a similar media but containing no lipids. On the day of the experiment, the cells for 4° C. incubation were chilled for 15 minutes prior to any additions. The wells were washed with 0.1 mL of phosphate buffered saline (PBS) and the synthetic LDL system in media added. The slides were then incubated for 1 or 3 hours at either 4° C. or 37° C. the latter in a humidified 5% CO2 atmosphere. […] The lens employed was ×20 PA with a numerical aperture of 0.75 and the data analysed using “Laser-sharp” software (Bio-Rad).

[2] = molecular target: T1, LDL receptor (Homo sapiens, UniProt P01130); experiment: Effect of anti-LDL receptor antibody on cellular association of peptide modified latex, normal fluorescent microscopy, HFFF-2 cells; type: cell-based; conditions: 3 hours at 37° C., antibody 8 μg/mL, peptide on Sigma carboxylate modified latex, 0.15 μg latex/μL, FIG. 6
T1 construct: endogenous in cells; host or cells: HFFF-2 fibroblast cells (ECACC 86031405)
Experimental: as §1
(§3) HFFF2 stock culture was grown in Dulbecco's modified Eagle's media supplemented with 10% v/v foetal bovine serum, glutamine (2 mM), fungizone (50 mg/ml) and pen-strep (0.1 mg/ml). Cells were seeded at 2 to 3×10^4 cell/cm^2 using 0.25% trypsin-EDTA and maintained in a humidified 5% CO2 atmosphere, at 37° C. and sub-cultured twice a week.
Prior (48 hr) to an experiment CHO or HFFF2 cells were plated at 2×10^4/cm^2 in an 8 well chamber slide, 0.7 cm^2 and 0.2 mL/chamber. One day before the experiment, media was replaced with a similar media but containing no lipids. On the date of the experiment, the cells for 4° C. incubation were chilled for 15 minutes prior to any additions. The wells were washed with 0.1 mL of phosphate buffered saline (PBS) and the synthetic LDL microparticle system, in media, added. The slides were then incubated for 1 or 3 hours at either 4° C. or 37° C. the latter in a humidified 5% CO2 atmosphere. […]

[3] = molecular target: T1, LDL receptor; experiment: Effect of anti-LDL receptor antibody on cellular association of peptide modified latex, confocal microscopy, HFFF-2 cells; type: cell-based; conditions: 3 hours at 37° C., antibody 8 μg/mL, peptide on Fluoresbrite latex, 0.15 μg latex/μL, FIG. 5
Experimental: as §1, §3, §2

T1 sequence (P01130 22-860): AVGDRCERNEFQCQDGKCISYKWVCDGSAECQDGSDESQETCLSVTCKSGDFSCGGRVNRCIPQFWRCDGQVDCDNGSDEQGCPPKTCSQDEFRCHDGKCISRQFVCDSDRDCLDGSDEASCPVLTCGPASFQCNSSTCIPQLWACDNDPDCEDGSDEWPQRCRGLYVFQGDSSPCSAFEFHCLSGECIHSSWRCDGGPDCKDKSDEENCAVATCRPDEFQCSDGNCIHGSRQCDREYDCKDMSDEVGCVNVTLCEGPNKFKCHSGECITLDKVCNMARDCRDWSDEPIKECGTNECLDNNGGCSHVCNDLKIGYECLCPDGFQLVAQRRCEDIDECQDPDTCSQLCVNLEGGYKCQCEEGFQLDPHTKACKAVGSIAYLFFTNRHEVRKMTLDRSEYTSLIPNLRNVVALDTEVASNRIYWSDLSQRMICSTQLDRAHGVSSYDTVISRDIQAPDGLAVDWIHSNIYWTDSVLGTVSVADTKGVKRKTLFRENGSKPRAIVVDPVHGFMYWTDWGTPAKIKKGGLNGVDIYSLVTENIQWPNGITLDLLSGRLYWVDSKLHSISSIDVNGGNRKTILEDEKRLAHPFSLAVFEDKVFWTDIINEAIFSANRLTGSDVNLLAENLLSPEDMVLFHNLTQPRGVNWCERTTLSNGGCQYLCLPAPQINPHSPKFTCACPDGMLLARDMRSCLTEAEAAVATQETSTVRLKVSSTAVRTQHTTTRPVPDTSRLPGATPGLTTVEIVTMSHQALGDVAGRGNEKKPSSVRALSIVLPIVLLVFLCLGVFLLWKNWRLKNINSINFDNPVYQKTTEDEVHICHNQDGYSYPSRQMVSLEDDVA

In the case of “peptide 3: Retinoic Acid-Tyr-Lys-Leu-Glu-Gly-Thr-Thr-Arg-Leu-Thr-Arg-Lys-Arg-Gly-Leu-Lys-Leu-Ala-Thr-Ala-Leu-Ser-Cholesterol ({retinoic acid}-YKLEGTTRLTRKRGLKLATALS-cholesterol)”, the “cellular association of peptide modified latex (rank order between peptides, fluorescence)” value [1] was “increased cellular association for peptide 4 followed by peptide 3 and then peptide 1” and the “reduction of cellular association by anti-LDL receptor antibody (normal fluorescent microscopy)” value [2] was “the reduction due to the presence of the antibody is clearly visible”.
With “peptide 4: Pyrene Butyric Acid-Lys-Leu-Glu-Gly-Thr-Thr-Arg-Leu-Thr-Arg-Lys-Arg-Gly-Leu-Lys-Leu-Ala-Thr-Ala-Leu-Ser-Leu-Phe-Leu-Phe-Cholesterol ({pyrene butyric acid}-KLEGTTRLTRKRGLKLATALSLFLF-cholesterol)” the “cellular association of peptide modified latex (rank order between peptides, fluorescence)” value [1] was “increased cellular association for peptide 4 followed by peptide 3 and then peptide 1” and the “reduction of cellular association by anti-LDL receptor antibody (confocal microscopy)” value [3] was “the reduction is not as great”.
